According to article PMC8691714 (Cancer Research Communications, 2021):

How the values were obtained:
TMD8 cells = assay: MTT viability assay, TMD8 cells, 72 hours; assay type: cell-based, human; settings: Homo sapiens, TMD8, 72 h, MTT
Procedure: Cell viability was assessed after 72 hours of incubation.

OCT3 = target: T1, OCT3 (Homo sapiens, UniProt O75751); assay: In vitro transport assay, cells overexpressing OCT3; assay type: cell-based; settings: OCT3 vs empty vector; 15 minutes
T1 construct: expressed in transfected cells; compared with empty vector control
T1 sequence (O75751 1-556): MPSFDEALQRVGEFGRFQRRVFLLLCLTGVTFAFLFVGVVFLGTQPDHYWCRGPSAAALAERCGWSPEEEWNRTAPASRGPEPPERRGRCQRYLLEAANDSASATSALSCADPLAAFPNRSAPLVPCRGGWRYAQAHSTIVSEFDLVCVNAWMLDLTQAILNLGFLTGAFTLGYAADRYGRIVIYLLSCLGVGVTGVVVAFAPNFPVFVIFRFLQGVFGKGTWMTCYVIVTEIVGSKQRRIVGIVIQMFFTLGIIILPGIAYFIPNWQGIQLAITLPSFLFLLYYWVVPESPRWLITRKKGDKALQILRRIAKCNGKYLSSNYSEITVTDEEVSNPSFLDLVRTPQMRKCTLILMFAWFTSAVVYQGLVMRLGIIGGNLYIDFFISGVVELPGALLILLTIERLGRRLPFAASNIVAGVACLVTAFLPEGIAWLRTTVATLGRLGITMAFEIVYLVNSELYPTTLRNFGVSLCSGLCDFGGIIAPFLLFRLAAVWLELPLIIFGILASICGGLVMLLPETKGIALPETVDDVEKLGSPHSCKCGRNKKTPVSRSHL

Caco-2 = system: Caco-2; design: method as in earlier work; settings: PBPK model parameter; ref [17, 18] and Drugbank; cited from earlier work
[1] = cited from earlier work
[2] = Cardiac distribution of ibrutinib in mice (heart-to-plasma ratio); settings: female wild-type mice; six hours after ibrutinib 10 mg/kg orally; cobicistat 30 mg/kg pretreatment vs vehicle; P < 0.01

`C=CC(=O)N1CCC[C@@H](n2nc(-c3ccc(Oc4ccccc4)cc3)c3c(N)ncnc32)C1` [Ibrutinib] gave an IC50 (TMD8 cells; None (Fig. 2A, ketoconazole panel)) of 1.4 nM, an IC50 (TMD8 cells; None (Fig. 2B, cobicistat panel)) of 1.4 nM and an IC50 (TMD8 cells; with 0.1 μmol/L cobi) of 1.3 nM. It also gave an IC50 (TMD8 cells; with 0.1 μmol/L keto) of 1.1 nM, an IC50 (TMD8 cells; with 1 μmol/L cobi) of 1.1 nM and an IC50 (TMD8 cells; with 1 μmol/L keto) of 1 nM. For the same molecule, the IC50 (TMD8 cells; with 10 μmol/L cobi) was 0.82 nM, the IC50 (TMD8 cells; with 10 μmol/L keto) was 0.88 nM and the “uptake of ibrutinib by transporter-overexpressing cells” value (OCT3) was “not substantially facilitated”. The Caco-2 (Caco-2) was 32.6 ×10⁻⁶ cm/s, the “experimentally observed increase in ibrutinib exposure” value ([1]; itraconazole-ibrutinib interaction, ref [8]) was 10 fold and the “increase in ibrutinib exposure predicted from a pharmacokinetic model” value ([1]; itraconazole-ibrutinib interaction, ref [23]) was 21 fold. The oral bioavailability ([1]; patients, ref [4, 5]) was under 3% and the “heart levels of ibrutinib normalized to plasma levels” value [2] was “substantially lower levels”.
